Assay results published in the supplement of paper PMC4862054.

How the values were obtained:
Settings in all cases: incubation time: 72 h
[1] = test system: CAL-148; assay: normalised viability (% of control), CellTiter-Blue; higher = more viable cells (about 100 = DMSO control)
Description: (§1)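 DSRT, CellTiter-Blue viability, 72 h incubation. Signal is normalised to DMSO and benzethonium chloride controls. Value is the normalised response at dose 6.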

[2] = test system: DU-4475; assay: as above
Description: as §1

[3] = test system: CAL-85-1; assay: as above
Description: as §1

[4] = test system: HDQ-P1; assay: as above
Description: as §1

[5] = test system: CAL-51; assay: as above
Description: as §1

[6] = test system: MDA-MB-453; assay: as above
Description: as §1

[7] = test system: BT-549; assay: normalised response (% of control), CellTox Green; higher = less cell death (100 = DMSO, 0 = benzethonium chloride kill control)
Outline: (§2)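 For each plate, 0.1 % DMSO was set to 100 and a positive kill control to 0. Breast cancer cell lines (20 µl suspension) were seeded into 384-well plates already holding compound at 5 concentrations in 10-fold steps over a 10,000-fold range chosen per compound, and incubated for 72 h. CellTox Green fluorescence at 485/520 nm was read before CellTiter-Glo luminescence, which followed 10 min at room temperature. Each value is the normalised signal at one concentration.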

[8] = test system: BT-474; assay: as above
Outline: as §2

[9] = test system: MFM-223; assay: as above
Outline: as §2

[10] = test system: CAL-148; assay: as above
Outline: as §2

[11] = test system: Hs578T; assay: as above
Outline: as §2

[12] = test system: CAL-120; assay: as above
Outline: as §2

[13] = test system: DU-4475; assay: as above
Outline: as §2

[14] = test system: HCC1143; assay: as above
Outline: as §2

[15] = test system: MDA-MB-436; assay: as above
Outline: as §2

[16] = test system: CAL-85-1; assay: as above
Outline: as §2

[17] = test system: MDA-MB-468; assay: as above
Outline: as §2

[18] = test system: HCC1599; assay: as above
Outline: as §2

[19] = test system: MCF-10A; assay: as above
Outline: as §2

[20] = test system: HDQ-P1; assay: as above
Outline: as §2

[21] = test system: CAL-51; assay: as above
Outline: as §2

[22] = test system: MDA-MB-453; assay: as above
Outline: as §2

[23] = test system: HCC1937; assay: as above
Outline: as §2

[24] = test system: MDA-MB-231; assay: as above
Outline: as §2

[25] = test system: BT-549; assay: normalised response (% of control), CellTiter-Glo; higher = more viable cells (100 = DMSO, 0 = benzethonium chloride kill control)
Description: (§3)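 DSRT, 72 h incubation, CellTox Green / CellTiter-Glo readout. Signal is normalised to DMSO and benzethonium chloride controls. Value is the normalised response at the highest dose.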

[26] = test system: BT-474; assay: as above
Description: as §3

[27] = test system: MFM-223; assay: as above
Description: as §3

[28] = test system: CAL-148; assay: as above
Description: as §3

[29] = test system: Hs578T; assay: as above
Description: as §3

[30] = test system: CAL-120; assay: as above
Description: as §3

[31] = test system: SK-BR-3; assay: as above
Description: as §3

[32] = test system: DU-4475; assay: as above
Description: as §3

[33] = test system: HCC1143; assay: as above
Description: as §3

[34] = test system: MDA-MB-436; assay: as above
Description: as §3

[35] = test system: CAL-85-1; assay: as above
Description: as §3

[36] = test system: MDA-MB-468; assay: as above
Description: as §3

[37] = test system: HCC1599; assay: as above
Description: as §3

[38] = test system: MCF-10A; assay: as above
Description: as §3

[39] = test system: HDQ-P1; assay: as above
Description: as §3

[40] = test system: CAL-51; assay: as above
Description: as §3

[41] = test system: MDA-MB-453; assay: as above
Description: as §3

[42] = test system: HCC1937; assay: as above
Description: as §3

[43] = test system: MDA-MB-231; assay: as above
Description: as §3

Which normalised viability [1] does the source give for `CC(=O)c1c(C)c2cnc(Nc3ccc(N4CCNCC4)cn3)nc2n(C2CCCC2)c1=O` (300 nM) here?
The normalised viability was 102%.

What about the normalised viability [2] of the same compound?
The normalised viability was 102%.

And the normalised viability [3]?
The normalised viability was 89.8%.

And the normalised viability [4]?
Its normalised viability is 52.7%.

And the normalised viability [5]?
Its normalised viability is 81.1%.

What about the normalised viability [6] of the same compound?
Its normalised viability is 74.3%.

How did the normalised viability [1] turn out when `Cn1cc(C2=Nc3cc(NC(=O)C(N)C4CCCCC4)cc4c3C2=CNNC4=O)cn1` (stereo unspecified) (300 nM) was run?
Its normalised viability is 84%.

What about the normalised viability [2] of the same compound?
Its normalised viability is 84.3%.

And the normalised viability [3]?
The normalised viability was 66.1%.

What about the normalised viability [4] of the same compound?
The normalised viability was 58.7%.

And the normalised viability [5]?
Its normalised viability is 93.9%.

And the normalised viability [6]?
Its normalised viability is 34.9%.

How did the normalised viability [1] turn out when `COc1cc2c(cc1O)CC[C@@H]1[C@@H]2CC[C@]2(C)[C@@H](O)CC[C@@H]12` [2-methoxyestradiol] (300 nM) was run?
The normalised viability was 97%.

And the normalised viability [2]?
Its normalised viability is 90.8%.

What about the normalised viability [3] of the same compound?
The normalised viability was 99%.

What about the normalised viability [4] of the same compound?
Its normalised viability is 72.2%.

What about the normalised viability [5] of the same compound?
Its normalised viability is 110%.

What about the normalised viability [6] of the same compound?
Its normalised viability is 81.3%.

How did the normalised viability [1] turn out when `Cc1sc2c(c1C)C(c1ccc(Cl)cc1)=N[C@@H](CC(=O)OC(C)(C)C)c1nnc(C)n1-2` [(+)JQ1] (300 nM) was run?
The normalised viability was 73.8%.

What about the normalised viability [2] of the same compound?
The normalised viability was 57.6%.

And the normalised viability [3]?
The normalised viability was 64.2%.

And the normalised viability [4]?
The normalised viability was 62.9%.

And the normalised viability [5]?
The normalised viability was 98.1%.

What about the normalised viability [6] of the same compound?
The normalised viability was 34.8%.

With `CC1(C)CCC(CN2CCN(c3ccc(C(=O)NS(=O)(=O)c4ccc(NCC5CCOCC5)c([N+](=O)[O-])c4)c(Oc4cnc5[nH]ccc5c4)c3)CC2)=C(c2ccc(Cl)cc2)C1` [ABT-199] (10000 nM) as the compound, how does the normalised response [7] read?
Its normalised response is 84.9%.

And the normalised response [8]?
Its normalised response is 101%.

And the normalised response [9]?
Its normalised response is 86.4%.

What about the normalised response [10] of the same compound?
The normalised response was 98.2%.

What about the normalised response [11] of the same compound?
The normalised response was 102%.

And the normalised response [12]?
The normalised response was 88.4%.

What about the normalised response [13] of the same compound?
Its normalised response is 97.9%.

What about the normalised response [14] of the same compound?
Its normalised response is 103%.

And the normalised response [15]?
Its normalised response is 95.9%.

What about the normalised response [16] of the same compound?
The normalised response was 114%.

And the normalised response [17]?
Its normalised response is 118%.

And the normalised response [18]?
The normalised response was 105%.

What about the normalised response [19] of the same compound?
The normalised response was 108%.

And the normalised response [20]?
Its normalised response is 98.2%.

And the normalised response [21]?
The normalised response was 101%.

And the normalised response [22]?
The normalised response was 97.7%.

And the normalised response [23]?
Its normalised response is -11.4%.

What about the normalised response [24] of the same compound?
The normalised response was -19%.

And the normalised response [25]?
The normalised response was 91.4%.

What about the normalised response [26] of the same compound?
The normalised response was 70.2%.

What about the normalised response [27] of the same compound?
The normalised response was 91%.

And the normalised response [28]?
The normalised response was 105%.

And the normalised response [29]?
The normalised response was 90.5%.

And the normalised response [30]?
The normalised response was 98.5%.

What about the normalised response [31] of the same compound?
Its normalised response is 90%.

What about the normalised response [32] of the same compound?
The normalised response was 86.2%.

And the normalised response [33]?
The normalised response was 93.7%.

And the normalised response [34]?
Its normalised response is 102%.

What about the normalised response [35] of the same compound?
Its normalised response is 97.8%.

And the normalised response [36]?
The normalised response was 85.9%.

And the normalised response [37]?
The normalised response was 66.4%.

And the normalised response [38]?
Its normalised response is 116%.

What about the normalised response [39] of the same compound?
The normalised response was 90.8%.

And the normalised response [40]?
The normalised response was 119%.

And the normalised response [41]?
The normalised response was 92.9%.

And the normalised response [42]?
Its normalised response is 73.2%.

What about the normalised response [43] of the same compound?
The normalised response was 66.3%.

How did the normalised viability [1] turn out when `Oc1ncnc2[nH]ncc12` [Allopurinol] (300 nM) was run?
Its normalised viability is 113%.

And the normalised viability [2]?
The normalised viability was 91.6%.

And the normalised viability [3]?
The normalised viability was 104%.

What about the normalised viability [4] of the same compound?
Its normalised viability is 73.6%.

And the normalised viability [5]?
The normalised viability was 93.3%.

And the normalised viability [6]?
The normalised viability was 101%.

What does the source list for `O=C1CN2Cc3c(ccc(Cl)c3Cl)N=C2N1` [Anagrelide] (300 nM)?
normalised viability [1]: 107%; normalised viability [2]: 94.7%; normalised viability [3]: 94.4%; normalised viability [4]: 80.3%; normalised viability [5]: 77.6%; normalised viability [6]: 111%

With `Nc1ncn([C@@H]2O[C@H](CO)[C@@H](O)[C@H]2O)c(=O)n1` [Azacitidine] (300 nM) as the compound, how does the normalised viability [1] read?
The normalised viability was 95.3%.

And the normalised viability [2]?
The normalised viability was 90%.

What about the normalised viability [3] of the same compound?
Its normalised viability is 93.1%.

What about the normalised viability [4] of the same compound?
The normalised viability was 84.5%.

And the normalised viability [5]?
The normalised viability was 104%.

And the normalised viability [6]?
The normalised viability was 91.9%.

Which normalised response [7] does the source give for `CC(=O)N(O)CCCCCNC(=O)CCC(=O)N(O)CCCCCNC(=O)CCC(=O)N(O)CCCCCN` [Deferoxamine] (10000 nM) here?
The normalised response was 81.3%.

And the normalised response [8]?
The normalised response was 82.7%.

What about the normalised response [9] of the same compound?
Its normalised response is 101%.

And the normalised response [10]?
The normalised response was 37.6%.

What about the normalised response [11] of the same compound?
Its normalised response is 113%.

What about the normalised response [12] of the same compound?
Its normalised response is 103%.

And the normalised response [13]?
The normalised response was 81.2%.

And the normalised response [14]?
Its normalised response is 79.9%.

What about the normalised response [15] of the same compound?
The normalised response was 98.2%.

And the normalised response [16]?
Its normalised response is 128%.

What about the normalised response [17] of the same compound?
The normalised response was 150%.

What about the normalised response [18] of the same compound?
Its normalised response is 92.8%.

What about the normalised response [19] of the same compound?
Its normalised response is 105%.

And the normalised response [20]?
The normalised response was 104%.

What about the normalised response [21] of the same compound?
The normalised response was 48%.

And the normalised response [22]?
The normalised response was 102%.

What about the normalised response [23] of the same compound?
The normalised response was 90.9%.

And the normalised response [24]?
The normalised response was 98.7%.

And the normalised response [25]?
The normalised response was 54.5%.

And the normalised response [26]?
Its normalised response is 76%.

And the normalised response [27]?
Its normalised response is 70.9%.

What about the normalised response [28] of the same compound?
Its normalised response is 26.6%.

And the normalised response [29]?
Its normalised response is 62%.

What about the normalised response [30] of the same compound?
Its normalised response is 87.2%.

What about the normalised response [31] of the same compound?
Its normalised response is 40.5%.

And the normalised response [32]?
Its normalised response is 18.3%.

What about the normalised response [33] of the same compound?
Its normalised response is 65%.

What about the normalised response [34] of the same compound?
The normalised response was 48.8%.

And the normalised response [35]?
The normalised response was 78.8%.

And the normalised response [36]?
Its normalised response is 37.7%.

And the normalised response [37]?
The normalised response was 45.9%.

And the normalised response [38]?
The normalised response was 57.5%.

What about the normalised response [39] of the same compound?
The normalised response was 64.6%.

And the normalised response [40]?
The normalised response was 37.9%.

And the normalised response [41]?
Its normalised response is 89.6%.

What about the normalised response [42] of the same compound?
The normalised response was 64.1%.

And the normalised response [43]?
The normalised response was 71.8%.
